Entries after “also recorded” stand apart in the source; their conditions may differ.
Tests used:
[1] = target: T1, PTGR2 (Homo sapiens, UniProt Q8N8N7); assay: gel-based ABPP, HHS-475 probe, HEK293T cells expressing recombinant PTGR2; type: cell-based; conditions: live HEK293T cells, ligand 25 μM or varying, 2 h; HHS-475 100 μM
T1 construct: host or cells: HEK293T
Procedure: HEK293T cells at 30-50% confluency were transfected with 2.6 μg of FAH or PTGR2 plasmid DNA in a serum-free media/polyethyleneimine solution for 48 hrs. The cells were washed once with warm, sterile DPBS (1×, 5 mL), and then 10 mL of serum-free media (supplemented with 1% L-glutamine) containing either DMSO or SuTEx fragment (in DMSO) was added. After 2 hrs, the cells were treated with 100 μM of SuTEx alkyne probe (HHS-475, 10 μL of 1000× DMSO stock) and incubated for an additional 2 hrs. The media was aspirated and cells washed with cold PBS (5 mL) and harvested. Cells were spun at 500×g for 5 min at 4° C. and supernatant was removed. Pellets were resuspended in 1 mL of cold DPB S and spun at 1,400×g for 3 min at 4° C. and supernatant was removed. The cells were lysed in PBS by sonication and fractionated (100,000×g, 45 min, 4° C.). The soluble fraction was diluted to 1 mg/mL in PBS and 49 μL was used for analysis. […] The samples were analyzed by SDS-PAGE (30 μL) and imaged by in-gel fluorescence scanning.
Confirmatory studies were also performed on prostaglandin reductase 2 (PTGR2) because of its role in the reduction of the bioactive lipid, 15-keto-PGE2^[17]. […] The remaining fluorescent signal detected on PTGR2 Y100F mutant protein is likely due to probe labeling of additional tyrosine sites identified on wild-type protein.
To assess the PTGR2 inhibitory activity of AMC-0702 and AMC-0703, HEK293T cells expressing PTGR2 were pretreated with vehicle, HHS-0101 (25 μM), HHS-0701 (25 μM), AMC-0702 (25 μM-0.1 μM), or AMC-0703 (25 μM-0.1 μM) for 2 hours followed by HHS-475 probe labelling in live cells (25 μM, 2 hours). Cells were lysed and probe-modified PTGR2 in proteomes detected by copper-catalyzed azide-alkyne cycloaddition conjugation of rhodamine-azide, SDS-PAGE, and in-gel fluorescence scanning. Inhibitory activity of compounds is determined by reductions in fluorescent band intensity from HHS-475 probe labeling of proteins detected in proteomes. […]

[2] = target: T1, PTGR2; assay: PTGR2 enzymatic (15-keto-PGE2 substrate) assay after live-cell treatment; type: biochemical; conditions: cells treated 2 h 37° C., up to 25 μM; 15-keto-PGE2 20 μM
Procedure: PTGR2 enzymatic assay was performed based on a previously described chromogenic method^[17,81]. HEK293T cells expressing recombinant PTGR2 were treated with DMSO vehicle or indicated concentrations of SuTEx ligand for 2 hrs. The cells were washed with cold PBS twice and harvested. The proteomes were lysed in PBS by sonication and fractionated (100,000×g, 45 min, 4° C.). Soluble proteome (0.5 mg) was incubated for 30 min at 37° C. with 1 mM of EDTA, DTT, NADPH and 20 μM 15-Keto PGE2 in 0.1 M Tris-HCl (PH 7.5) (final volume of 230 μL) and the substrate consumed was determined by adding 20 μL 20 N NaOH, mixing and measuring absorbance at 500 nm after 5 min.
The effect of liganding tyrosine sites on the biochemical function of PTGR2 was investigated. PTGR2 has a role in metabolism and there is an ability to measure its biochemical activity using an established 15-keto-PGE2 substrate assay^[17-18]. In brief, recombinant PTGR2 expressing HEK293T cells were treated with DMSO, HHS-0701, or HHS-0101 (negative control) for 2 hours at 37° C. Cells were lysed and the soluble fractions incubated in an assay buffer containing 15-keto-PGE2 (20 μM) for 30 minutes at 37° C. After quenching reactions in NaOH, the amount of substrate remaining was quantified by absorbance of a red chromophore that forms in an alkaline solution of 15-keto-PGE2^[17-18]. […]

T1 sequence (Q8N8N7 whole entry): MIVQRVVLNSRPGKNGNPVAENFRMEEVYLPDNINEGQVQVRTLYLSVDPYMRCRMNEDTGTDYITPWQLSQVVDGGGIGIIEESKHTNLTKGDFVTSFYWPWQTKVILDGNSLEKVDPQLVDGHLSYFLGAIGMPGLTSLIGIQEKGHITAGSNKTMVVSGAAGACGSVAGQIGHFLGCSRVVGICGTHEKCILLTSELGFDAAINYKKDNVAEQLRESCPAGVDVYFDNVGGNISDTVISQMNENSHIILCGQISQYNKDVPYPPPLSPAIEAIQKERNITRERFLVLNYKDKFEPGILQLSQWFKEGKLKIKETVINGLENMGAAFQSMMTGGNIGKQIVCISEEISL

SMILES	blockade of HHS-475 labeling of PTGR2 [1]	inhibition of PTGR2 biochemical activity [2]
O=C(NC1CC1)c1ccc(S(=O)(=O)n2cncn2)cc1 [HHS-0101, 4-((1H-1,2,4-triazol-1-yl)sulfonyl)-N-cyclopropylbenzamide]	not	No inhibitory activity
O=C(c1ccc(S(=O)(=O)n2cncn2)cc1)N1CCC(c2ccccc2)CC1 [HHS-0701, (4-((1H-1,2,4-triazol-1-yl)sulfonyl)phenyl)(4-phenylpiperidin-1-yl)methanone]	could block HHS-475 labeling of PTGR2; also recorded: concentration-dependent blockade of probe labeling	concentration-dependent inhibition of PTGR2 activity
